Tests used:
[1] = high doses necessary for efficacy (4 g/day); cited from earlier work
[2] = tested on: Lp(a); details: man, reported in the literature; cited from earlier work

melting point | Structure (SMILES) | serious side-effects [1] | effect on Lp(a) levels [2]
 | O=C(O)c1cccnc1 [nicotinic acid] | flushing, vasodilation and hepatotoxicity | lower Lp(a)
 | CC[C@H](C)C(=O)O[C@H]1C[C@@H](C)C=C2C=C[C@H](C)[C@H](CC[C@@H]3C[C@@H](O)CC(=O)O3)[C@H]21 [lovastatin] |  | do not affect Lp(a) levels
99 to 101 °C | CCOP(=O)(CNCc1cccnc1-c1cc(OC)c(O)c(OC)c1)OCC |  | 
124 to 126 °C | CCOP(=O)(CNCc1ccnc(-c2cc(OC)c(O)c(OC)c2)c1)OCC |  | 
 | CC(C)(Sc1cc(C(C)(C)C)c(O)c(C(C)(C)C)c1)Sc1cc(C(C)(C)C)c(O)c(C(C)(C)C)c1 [probucol] |  | equally ineffective

From US6660724B1, “Compounds and pharmaceutical compositions containing them” (Ilex Products, Inc., priority 1995, dated 2003)
